# Test system: anesthetized rats subjected to coronary artery occlusion
# Assay: Antiarrhythmic efficacy: arrhythmias after coronary artery occlusion in anesthetized rats
# Type: in vivo, rat
# Conditions: i.v. infusion
# Text: Antiarrhythmic efficacy may be assessed by investigating the effect of a compound on the incidence of cardiac arrhythmias in anesthetized rats subjected to coronary artery occlusion. Rats weighing 200–300 gms are subjected to preparative surgery and assigned to groups in a random block design. In each case, the animal is anesthetized with pentobarbital during surgical preparation. The left carotid artery is cannulated for measurement of mean arterial blood pressure and withdrawal of blood samples. The left jugular vein is also cannulated for injection of drugs. The thoracic cavity is opened and a polyethylene occluder loosely placed around the left anterior descending coronary artery. The thoracic cavity is then closed. An ECG is recorded by insertion of electrodes placed along the anatomical axis of the heart. […] ECG, arrhythmias, blood pressure, heart rate and mortality are monitored for 15 minutes after occlusion. Arrhythmias are recorded as ventricular tachycardia (VT) and ventricular fibrillation (VF) and scored according to Curtis, M. J. and Walker, M. J. A., Cardiovasc. […]
# Occlusion is associated with R-wave height and “S-T” segment elevation; and an occluded zone (measured after death by cardiogreen dye perfusion) in the range of 25%–50% of total left-ventricular weight.
# Results of the test compounds may be expressed as values of a given infusion rate in micromol/kg/min. […]
structure (smiles),measurement,value
"COc1ccc(CCCOc2cccn3cc(C)nc23)cc1OC [Compound 3, 8-[3-(3,4-DIMETHOXYPHENYL)PROPOXY]-2-METHYLIMIDAZO[1,2-α]PYRIDINE MONOHYDROCHLORDE]",ED50AA (infusion rate reducing arrhythmia score to 50% of vehicle-treated animals),5 µmol/kg/min

# From US7105534B2, “Imidazo[1,2-α]pyridine ether compounds as ion channel modulators” (Cardiome Pharma Corp., priority 2000, dated 2006)
